In ChEMBL document CHEMBL5727833, “MALT1 inhibitors and uses thereof” (2020):
pKi: −log10 of the molar value.

target: T1, Mucosa-associated lymphoid tissue lymphoma translocation protein 1 (Homo sapiens, UniProt Q9UDY8); assay: Biological Assay: For exemplary compounds of the disclosure, Ki for inhibition of MALT1 was measured (Table E11). A concentration of 100 nM MALT1 was used for the assay.
T1 sequence (Q9UDY8 whole entry): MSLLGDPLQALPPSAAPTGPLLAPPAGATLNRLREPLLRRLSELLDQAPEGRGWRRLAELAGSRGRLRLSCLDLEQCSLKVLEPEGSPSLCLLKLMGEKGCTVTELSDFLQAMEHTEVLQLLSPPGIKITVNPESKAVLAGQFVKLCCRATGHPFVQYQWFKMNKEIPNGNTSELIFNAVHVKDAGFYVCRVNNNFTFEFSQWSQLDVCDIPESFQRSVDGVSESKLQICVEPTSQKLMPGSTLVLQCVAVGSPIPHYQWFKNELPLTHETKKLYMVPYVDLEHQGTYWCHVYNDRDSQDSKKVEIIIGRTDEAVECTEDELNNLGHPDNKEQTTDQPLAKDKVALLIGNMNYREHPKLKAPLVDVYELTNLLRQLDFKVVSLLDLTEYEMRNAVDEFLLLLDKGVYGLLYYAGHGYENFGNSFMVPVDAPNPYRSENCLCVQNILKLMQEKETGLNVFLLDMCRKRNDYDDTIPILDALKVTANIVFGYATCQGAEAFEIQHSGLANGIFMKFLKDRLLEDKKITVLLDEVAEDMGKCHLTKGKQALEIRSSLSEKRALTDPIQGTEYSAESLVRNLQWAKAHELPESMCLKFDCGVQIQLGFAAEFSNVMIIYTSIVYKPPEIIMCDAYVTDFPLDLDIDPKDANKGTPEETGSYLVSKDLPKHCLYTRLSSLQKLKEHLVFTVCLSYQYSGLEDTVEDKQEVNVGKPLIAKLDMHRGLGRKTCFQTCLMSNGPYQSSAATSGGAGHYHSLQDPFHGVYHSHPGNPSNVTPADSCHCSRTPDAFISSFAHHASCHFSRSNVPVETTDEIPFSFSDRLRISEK

| Compound | pKi |
| --- | --- |
| CC(C)[C@H](NC(=O)Nc1ccccc1Cl)C(=O)N1CCC[C@H]1C(=O)N[C@@H](CCCNC(=N)N)C(=O)CF | 7.62 |
| N=C(N)NCCC[C@H](NC(=O)[C@@H]1C[C@@H](O)CN1C(=O)[C@@H](NC(=O)c1ccc(Br)cc1)C1CCCCC1)C(=O)CF | 7.47 |
| CC(C)c1ccc(C(=O)N[C@H](C(=O)N2CCC[C@H]2C(=O)N[C@@H](CCCNC(=N)N)C(=O)CF)C(C)C)cc1 | 7.66 |
| N=C(N)NCCC[C@H](NC(=O)[C@@H]1CCCN1C(=O)[C@H](Cc1cccnc1)NC(=O)c1ccc(Br)cc1)C(=O)CF | < 6.00 |

Continued by rising pKi, values first:

| pKi | Compound |
| --- | --- |
| 7.11 | CC(C)[C@H](NC(=O)c1ccc(Br)c(F)c1)C(=O)N1CCC[C@H]1C(=O)N[C@@H](CCCNC(=N)N)C(=O)CF |
| 7.18 | CC(C)[C@H](NS(=O)(=O)c1ccc(Br)cc1)C(=O)N1CCC[C@H]1C(=O)N[C@@H](CCCNC(=N)N)C(=O)CF |
| 7.28 | Cc1nc(C(=O)N[C@H](C(=O)N2CCC[C@H]2C(=O)N[C@@H](CCCNC(=N)N)C(=O)CF)C(C)C)cs1 |
| 7.89 | CC(C)[C@H](NC(=O)c1ccc(Br)c(C#N)c1)C(=O)N1CCC[C@H]1C(=O)N[C@@H](CCCNC(=N)N)C(=O)CF |
